Assay results from US8053475B2, “Preparation of the formaurindikarboxyl acid base and its derivations and use” (Vyzkumny Ustav Zivocisne Vyroby, V.V.I., priority 2007, dated 2011).

Test system: Cryptosporidium parvum
Test: In vivo model of Tzipori (1998), modified: orally infected baby mice treated for 8 days
Parameters: species or system C57B1/6 baby mice
Settings: aurintricarboxylic acid 50 and 100 mmol/kg/day orally in 2 equal portions at 12-hr intervals, suckling C57B1/6 mice infected with 100 000 oocysts
Description: In vivo model designed by Tzipori (1998) was used in following modification: Three-day-old, SPF C57B1/6 baby mice (Velaz, Czech Republic) were randomly assigned to groups of 8-9 mice. The baby mice were caged with their mother in sterile microisolators equipped with filter tops under standard conditions. 4-day-old mice were orally infected with 100 000 oocysts and the treatment was initiated at the same time; the daily dose of aurintricarboxylic acid 50 and […] was divided into 2 equal portions and orally administered in 12-hr intervals. A control group received phosphate buffer saline, and paromomycin (100 mg/kg/day) was used as positive control. ATA was prepared fresh before each use by dissolving the drug in aqueous solution of sodium hydroxide or potassium hydroxide at a molar ratio of 1:3 (ATA:NaOH), or in dimethylsulfoxide. […] Intensity of infection was expressed as the number of oocysts in homogenized intestinal tract in the 9th day after infection. The experiment was repeated between 2006 and 2007 and always gave very similar results.
The inihibition aurintricarboxylic acid on experimental Cryptosporidium parvum-infection in suckling C57B16 mice is graphed in FIG. 1.

## O=C(O)C1=CC(=C(c2ccc(O)c(C(=O)O)c2)c2ccc(O)c(C(=O)O)c2)C=CC1=O [aurintricarboxylic acid]
  tolerability of the treatment (visible signs of toxicity): tolerated without any visible signs of toxicity
